Measured values from patent US20260287577A1, “APPLICATIONS OF HEPATOCYTE CO-CULTURE SYSTEM” (LifeNet Health, priority 2023, published 2026).

Assays:
Assay type in all cases: cell-based, human
[1] = tested on: PHHs in the hTCS and DhTCS; test: Albumin secretion (ELISA) by PHHs in hTCS/DhTCS; details: normal PHHs in hTCS
Method: Albumin and Urea Assays. Supernatant was collected on the indicated days for measurement of albumin and urea. Three wells or greater were designated for each condition. Samples were run in duplicate. The concentration of albumin was determined using an ELISA assay (Abcam, Cambridge, MA) and performed according to the manufacturer's instructions. Urea was measured by a colorimetric kit (Stanbio, Boerne, TX) and performed according to the manufacturer's instructions. Bicinchoninic Acid Assay (BCA). The BCA assay was performed with supernatant collected on the designated day. Three wells or greater were designated for each condition. Samples were run in duplicate. Total protein concentration was determined using a kit (Thermo Fisher, Waltham, MA) and performed according to the manufacturer's instructions. Glucose, Oleic Acid, and OCA Treatment.

[2] = tested on: PHHs in the hTCS and DhTCS; test: Nile Red staining of lipid accumulation in PHHs cultured in hTCS/DhTCS; details: normal PHHs in hTCS, lipogenic medium plus 0.5 μM OCA
From the text: All-Human Triculture System. The hTCS was set up as previously described, including the medias, cell types, and expected functional performance. This protocol follows the guidelines of […] Health's ethics committee. All cells were isolated from donor tissue fully consented for research purposes by […] Health. PHHs have been designated as normal or diseased based on a histopathologic assessment of the tissue of origin by a board-certified pathologist, using the standard MASH CRN Scoring System. Formalin-fixed paraffin-embedded tissue sections were stained with H&E (FIG. 38) and Masson's Trichrome (FIG. 39) and assessed for steatosis, lobular inflammation, and hepatocyte ballooning to form the MAFLD Activity Score (NAS). Fibrosis was scored separately on a 4-point scale according to the classification as described by Kleiner et al (Kleiner et al., 2005). Tissues with a NAS of ≥4 were designated “Diseased” (n=4) while those with NAS of ≤3 were categorized as “Normal” (n=7) (Table 1). Glucose, Oleic Acid, and OCA Treatment. […] Nile Red Staining. Cells were washed with 1×DPBS (-Ca^++/-Mg^++) (Thermo Fisher) three times, and then Nile Red was added at a 1:500 dilution (Abcam). […] Nile Red staining was quantified by determining the densitometric fluorescence value (red channel) using Image J.

[3] = tested on: PHHs cultured in the hTCS; test: Bile canaliculi formation, CDFDA staining; details: normal PHHs in hTCS, treated medium with addition of OCA (0.5 μM)
Method: Glucose, Oleic Acid, and OCA Treatment. […] 5-(and-6)-Carboxy-2′, 7′-Dichlorofluorescein Diacetate Staining. To visualize bile canaliculi formation, cells were rinsed twice with 1×DPBS (—Ca^++/—Mg^++) (Thermo Fisher). Fresh medium plus 5 μM 5-(and-6)-Carboxy-2′, 7′-Dichlorofluorescein Diacetate (CDFDA) (Thermo Fisher) were added to the cells and incubated for 20 minutes at 37° C. Cells were then washed twice with 1×DPBS (—Ca^++/—Mg^++), and DMEM (no phenol red) (Gibco) was added to the cells. Images were taken with an EVOS FL cell imaging system (Thermo Fisher) using a 10× objective.

CC[C@H]1[C@@H](O)[C@@H]2[C@H](CC[C@]3(C)[C@@H]([C@H](C)CCC(=O)O)CC[C@@H]23)[C@@]2(C)CC[C@@H](O)C[C@@H]12 [OCA, 6α-ethyl-chenodeoxycholic acid]
albumin, treated plus OCA compared to treated only ([1]; day 1, not significant): An increase in albumin | albumin secretion ([1]; lipogenic medium plus 0.5 μM OCA, day 7): 13,706±4,738 ng/mg total protein | albumin levels ([1]; lipogenic medium plus 0.5 μM OCA, day 14): 2,219±400 ng/mg total protein | Nile Red staining (lipid accumulation) ([2]; day 7): 134.6%±13.6 | Nile Red staining (lipid accumulation) ([2]; day 14, significantly less than treated only, 20160 min): 126.1%±8.5 | bile canalicular network formation compared to untreated PHHs [3]: appeared to increase bile canalicular network formation
